Laboratory results: the NIST ThermoML archive (doi:10.1021/je0302304)
Numbers after ± are expanded uncertainties.

Assay: refractive index (Na D-line) (dimensionless); xn = mol fraction of the nth substance listed
Settings: 101.32 kPa, Liquid, Standard Abbe refractometry

COCCOCCOCCOCCOC [2,5,8,11,14-pentaoxapentadecane] + CCO
refractive index (288.15 K, x1 = 0.0045): 1.3644 ± 0.0003 | refractive index (288.15 K, x1 = 0.0085): 1.3656 ± 0.0003 | refractive index (288.15 K, x1 = 0.0125): 1.3667 ± 0.0003 | refractive index (288.15 K, x1 = 0.0165): 1.3678 ± 0.0003 | refractive index (288.15 K, x1 = 0.0205): 1.3689 ± 0.0003 | refractive index (288.15 K, x1 = 0.0305): 1.3714 ± 0.0003 | refractive index (288.15 K, x1 = 0.05): 1.376 ± 0.0003 | refractive index (288.15 K, x1 = 0.1): 1.3858 ± 0.0003 | refractive index (288.15 K, x1 = 0.15): 1.3936 ± 0.0003 | refractive index (288.15 K, x1 = 0.2): 1.3999 ± 0.0003 | refractive index (288.15 K, x1 = 0.25): 1.405 ± 0.0003 | refractive index (288.15 K, x1 = 0.3): 1.4093 ± 0.0003 | refractive index (288.15 K, x1 = 0.35): 1.4129 ± 0.0003 | refractive index (288.15 K, x1 = 0.4): 1.4159 ± 0.0003 | refractive index (288.15 K, x1 = 0.45): 1.4186 ± 0.0003 | refractive index (288.15 K, x1 = 0.5): 1.4209 ± 0.0003 | refractive index (288.15 K, x1 = 0.55): 1.423 ± 0.0003 | refractive index (288.15 K, x1 = 0.6): 1.4248 ± 0.0003 | refractive index (288.15 K, x1 = 0.6499): 1.4264 ± 0.0003 | refractive index (288.15 K, x1 = 0.7): 1.4279 ± 0.0003 | refractive index (288.15 K, x1 = 0.7498): 1.4292 ± 0.0003 | refractive index (288.15 K, x1 = 0.7999): 1.4304 ± 0.0003 | refractive index (288.15 K, x1 = 0.8499): 1.4315 ± 0.0003 | refractive index (288.15 K, x1 = 0.8997): 1.4326 ± 0.0003 | refractive index (288.15 K, x1 = 0.9496): 1.4335 ± 0.0003 | refractive index (288.15 K, x1 = 1): 1.4344 ± 0.0003 | refractive index (298.15 K, x1 = 0.0045): 1.3604 ± 0.0003 | refractive index (298.15 K, x1 = 0.0085): 1.3615 ± 0.0003 | refractive index (298.15 K, x1 = 0.0125): 1.3627 ± 0.0003 | refractive index (298.15 K, x1 = 0.0165): 1.3638 ± 0.0003 | refractive index (298.15 K, x1 = 0.0205): 1.3649 ± 0.0003 | refractive index (298.15 K, x1 = 0.0305): 1.3674 ± 0.0003 | refractive index (298.15 K, x1 = 0.05): 1.372 ± 0.0003 | refractive index (298.15 K, x1 = 0.1): 1.3819 ± 0.0003 | refractive index (298.15 K, x1 = 0.15): 1.3897 ± 0.0003 | refractive index (298.15 K, x1 = 0.2): 1.396 ± 0.0003 | refractive index (298.15 K, x1 = 0.25): 1.4011 ± 0.0003 | refractive index (298.15 K, x1 = 0.3): 1.4053 ± 0.0003 | refractive index (298.15 K, x1 = 0.35): 1.4089 ± 0.0003 | refractive index (298.15 K, x1 = 0.4): 1.412 ± 0.0003 | refractive index (298.15 K, x1 = 0.45): 1.4146 ± 0.0003 | refractive index (298.15 K, x1 = 0.5): 1.417 ± 0.0003 | refractive index (298.15 K, x1 = 0.55): 1.419 ± 0.0003 | refractive index (298.15 K, x1 = 0.6): 1.4208 ± 0.0003 | refractive index (298.15 K, x1 = 0.6499): 1.4225 ± 0.0003 | refractive index (298.15 K, x1 = 0.7): 1.4239 ± 0.0003 | refractive index (298.15 K, x1 = 0.7498): 1.4252 ± 0.0003 | refractive index (298.15 K, x1 = 0.7999): 1.4264 ± 0.0003 | refractive index (298.15 K, x1 = 0.8499): 1.4275 ± 0.0003 | refractive index (298.15 K, x1 = 0.8997): 1.4285 ± 0.0003 | refractive index (298.15 K, x1 = 0.9496): 1.4294 ± 0.0003 | refractive index (298.15 K, x1 = 1): 1.4303 ± 0.0003 | refractive index (308.15 K, x1 = 0.0045): 1.3564 ± 0.0003 | refractive index (308.15 K, x1 = 0.0085): 1.3575 ± 0.0003 | refractive index (308.15 K, x1 = 0.0125): 1.3586 ± 0.0003 | refractive index (308.15 K, x1 = 0.0165): 1.3598 ± 0.0003 | refractive index (308.15 K, x1 = 0.0205): 1.3608 ± 0.0003 | refractive index (308.15 K, x1 = 0.0305): 1.3634 ± 0.0003 | refractive index (308.15 K, x1 = 0.05): 1.368 ± 0.0003 | refractive index (308.15 K, x1 = 0.1): 1.3779 ± 0.0003 | refractive index (308.15 K, x1 = 0.15): 1.3857 ± 0.0003 | refractive index (308.15 K, x1 = 0.2): 1.392 ± 0.0003 | refractive index (308.15 K, x1 = 0.25): 1.3971 ± 0.0003 | refractive index (308.15 K, x1 = 0.3): 1.4013 ± 0.0003 | refractive index (308.15 K, x1 = 0.35): 1.4049 ± 0.0003 | refractive index (308.15 K, x1 = 0.4): 1.408 ± 0.0003 | refractive index (308.15 K, x1 = 0.45): 1.4106 ± 0.0003 | refractive index (308.15 K, x1 = 0.5): 1.413 ± 0.0003 | refractive index (308.15 K, x1 = 0.55): 1.415 ± 0.0003 | refractive index (308.15 K, x1 = 0.6): 1.4168 ± 0.0003 | refractive index (308.15 K, x1 = 0.6499): 1.4184 ± 0.0003 | refractive index (308.15 K, x1 = 0.7): 1.4199 ± 0.0003 | refractive index (308.15 K, x1 = 0.7498): 1.4212 ± 0.0003 | refractive index (308.15 K, x1 = 0.7999): 1.4224 ± 0.0003 | refractive index (308.15 K, x1 = 0.8499): 1.4234 ± 0.0003 | refractive index (308.15 K, x1 = 0.8997): 1.4244 ± 0.0003 | refractive index (308.15 K, x1 = 0.9496): 1.4253 ± 0.0003 | refractive index (308.15 K, x1 = 1): 1.4262 ± 0.0003 | refractive index (318.15 K, x1 = 0.0045): 1.3522 ± 0.0003 | refractive index (318.15 K, x1 = 0.0085): 1.3533 ± 0.0003 | refractive index (318.15 K, x1 = 0.0125): 1.3545 ± 0.0003 | refractive index (318.15 K, x1 = 0.0165): 1.3556 ± 0.0003 | refractive index (318.15 K, x1 = 0.0205): 1.3567 ± 0.0003 | refractive index (318.15 K, x1 = 0.0305): 1.3593 ± 0.0003 | refractive index (318.15 K, x1 = 0.05): 1.3641 ± 0.0003 | refractive index (318.15 K, x1 = 0.1): 1.3741 ± 0.0003 | refractive index (318.15 K, x1 = 0.15): 1.3818 ± 0.0003 | refractive index (318.15 K, x1 = 0.2): 1.3881 ± 0.0003 | refractive index (318.15 K, x1 = 0.25): 1.3931 ± 0.0003 | refractive index (318.15 K, x1 = 0.3): 1.3973 ± 0.0003 | refractive index (318.15 K, x1 = 0.35): 1.4009 ± 0.0003 | refractive index (318.15 K, x1 = 0.4): 1.404 ± 0.0003 | refractive index (318.15 K, x1 = 0.45): 1.4067 ± 0.0003 | refractive index (318.15 K, x1 = 0.5): 1.409 ± 0.0003 | refractive index (318.15 K, x1 = 0.55): 1.411 ± 0.0003 | refractive index (318.15 K, x1 = 0.6): 1.4128 ± 0.0003 | refractive index (318.15 K, x1 = 0.6499): 1.4144 ± 0.0003 | refractive index (318.15 K, x1 = 0.7): 1.4159 ± 0.0003 | refractive index (318.15 K, x1 = 0.7498): 1.4172 ± 0.0003 | refractive index (318.15 K, x1 = 0.7999): 1.4184 ± 0.0003 | refractive index (318.15 K, x1 = 0.8499): 1.4194 ± 0.0003 | refractive index (318.15 K, x1 = 0.8997): 1.4204 ± 0.0003 | refractive index (318.15 K, x1 = 0.9496): 1.4213 ± 0.0003 | refractive index (318.15 K, x1 = 1): 1.4221 ± 0.0003
